# Source: ChEMBL document CHEMBL2177019, “Carbamate derivatives of indolines as cholinesterase inhibitors and antioxidants for the treatment of Alzheimer's disease” (J Med Chem, 2012)
# The source made the active and inactive calls. The calls are words filed in the database; no cut-off is given here.
# Experiments:
# H9c2 [1] = assay: Prevention of apoptosis in rat H9c2 cells assessed as protection against oxidative stress-induced cytotoxicity at 100 nM […] by Alamar blue assay; type: functional
# Butyrylcholinesterase = Butyrylcholinesterase (Equus caballus, UniProt Q9N1N9); assay: Inhibition of equine BuChE after 120 mins by Ellman's method
# Sequence of Butyrylcholinesterase (Q9N1N9 whole entry): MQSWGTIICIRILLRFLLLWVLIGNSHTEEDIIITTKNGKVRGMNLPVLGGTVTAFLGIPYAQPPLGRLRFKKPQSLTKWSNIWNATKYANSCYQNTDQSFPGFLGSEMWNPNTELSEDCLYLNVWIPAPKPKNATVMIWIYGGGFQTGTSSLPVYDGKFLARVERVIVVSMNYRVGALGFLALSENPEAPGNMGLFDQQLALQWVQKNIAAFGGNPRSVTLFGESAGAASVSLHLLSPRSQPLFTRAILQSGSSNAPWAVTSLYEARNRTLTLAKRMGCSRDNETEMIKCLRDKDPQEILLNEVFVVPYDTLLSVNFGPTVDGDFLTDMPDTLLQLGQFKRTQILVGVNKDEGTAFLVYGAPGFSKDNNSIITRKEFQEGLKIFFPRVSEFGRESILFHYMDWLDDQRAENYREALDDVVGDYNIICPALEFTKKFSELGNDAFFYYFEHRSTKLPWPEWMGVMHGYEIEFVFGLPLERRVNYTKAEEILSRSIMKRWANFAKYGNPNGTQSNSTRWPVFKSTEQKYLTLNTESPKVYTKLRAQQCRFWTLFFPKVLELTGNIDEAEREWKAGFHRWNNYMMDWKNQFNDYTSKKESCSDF
# Acetylcholinesterase = biological target: T1, Acetylcholinesterase (Bos taurus, UniProt P23795); assay: Inhibition of bovine AChE after 120 mins by Ellman's method
# T1 sequence (P23795 whole entry): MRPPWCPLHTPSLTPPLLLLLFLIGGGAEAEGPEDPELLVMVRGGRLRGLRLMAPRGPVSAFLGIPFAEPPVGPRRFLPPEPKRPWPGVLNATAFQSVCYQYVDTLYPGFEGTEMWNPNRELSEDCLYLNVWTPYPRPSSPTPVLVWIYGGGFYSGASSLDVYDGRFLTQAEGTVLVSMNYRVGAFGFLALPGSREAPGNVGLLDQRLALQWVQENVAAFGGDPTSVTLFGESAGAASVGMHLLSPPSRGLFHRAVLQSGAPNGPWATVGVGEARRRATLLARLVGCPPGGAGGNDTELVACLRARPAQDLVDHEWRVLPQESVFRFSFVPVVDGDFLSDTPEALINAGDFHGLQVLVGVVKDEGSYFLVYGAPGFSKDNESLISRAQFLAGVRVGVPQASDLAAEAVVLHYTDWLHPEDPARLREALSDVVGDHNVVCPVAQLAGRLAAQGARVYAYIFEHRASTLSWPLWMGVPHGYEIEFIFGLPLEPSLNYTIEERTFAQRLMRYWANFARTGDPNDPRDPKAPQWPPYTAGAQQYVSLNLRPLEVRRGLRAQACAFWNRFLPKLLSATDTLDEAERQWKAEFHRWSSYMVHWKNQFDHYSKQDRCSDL
# [2] = Cytotoxicity against rat H9c2 cells assessed as cell viability in absence of H2O2; type: cell-based; design: concentration or dose not given beside the values; settings: read-out: Activity
# [3] = Antioxidant activity assessed as scavenging of glucose oxidase-generated H2O2 and hydroxyl radicals by chemiluminescence assay; type: functional
# [4] = Selectivity ratio of IC50 for equine BuChE to IC50 for bovine AChE
# H9c2 [5] = assay: Prevention of apoptosis in rat H9c2 cells assessed as reduction in fall of mitochondrial membrane potential at 100 nM after 1 hr; type: functional; design: scale not given: the % may be the effect or the level left
# [6] = Antioxidant activity of the compound assessed as DHR radical scavenging activity at 10 uM by fluorescence assay; type: functional
# Gallus gallus [7] = organism: Gallus gallus; assay: Prevention of apoptosis in chick primary telencephalon neurons assessed as protection against serum deprivation-induced oxidative stress at 10 nM measured on day 8 by MTT assay; type: functional
# [8] = test system: Radical scavenging activity; assay: Antioxidant activity of the compound assessed as DPPH radical scavenging at 10 uM after 30 secs by spectrophotometry; type: functional
# Gallus gallus [9] = organism: Gallus gallus; assay: Prevention of apoptosis in chick primary telencephalon neurons assessed as protection against serum deprivation-induced cytotoxicity at 1 to 10 uM by MTT assay; type: functional
# [10] = Antioxidant activity assessed as scavenging of morpholino sydononimine based nitric oxide release by chemiluminescence assay; type: functional
# H9c2 [11] = assay: Prevention of apoptosis in rat H9c2 cardiomyocytes assessed as protection against oxidative stress-induced cytotoxicity at 1 pM to 1 nM after 1 hr by Alamar blue assay; type: functional
# [12] = Chemical stability in MeCN/water solution used as 0.5 mg/mL solution at -20 degC; type: physicochemical; settings: buffer
# [13] = Chemical stability in MeCN/water solution used as 50 mg/mL solution at -20 degC; type: physicochemical; settings: buffer
# [14] = Chemical stability in MeCN/water solution used as 100 mg/mL solution at room temperature; type: physicochemical; settings: buffer
# Liver microsomes = assay: Metabolic stability in human liver microsomes; type: ADME, Microsome
# Liver = assay: Metabolic stability in mouse liver microsomes; type: ADME, Microsome
# [15] = Antioxidant activity of the compound assessed as scavenging of peroxynitrite by chemiluminometric method; type: functional
# [16] = Antioxidant activity of the compound assessed as scavenging of hydroxyl radical by chemiluminometric method; type: functional
# [17] = Chemical stability in MeCN/water solution at 25 degC; type: physicochemical; settings: buffer
# [18] = Stability in human plasma assessed as compound hydrolysis at 37 degC within 90 mins; type: ADME, cell-free; settings: read-out: Drug degradation
Compound,Activity (H9c2 [1]),IC50 (Butyrylcholinesterase) [µM],IC50 (Acetylcholinesterase) [µM],viability [2] [%],IC50 [3] [µM],Ratio IC50 [4],further results
CCN(C)C(=O)Oc1cccc2c1C(CCC(=O)OC)CN2C (stereo unspecified),inactive,6.8,58.7,97.3,3.13,0.11,
COc1ccc(N(C)C(=O)Oc2cccc3c2C(CCC(=O)O)CN3C)cc1 (stereo unspecified),inactive,> 600,125,101,10.2,> 4.8,
CCN(C)C(=O)Oc1cccc2c1NCC2CCC(=O)OC (stereo unspecified),,0.008,61.6,,,0.00012,
CCCCN(C)C(=O)Oc1ccc2c(c1)NCC2CCC(=O)OC.Cl (stereo unspecified),40.1%,404,62.3,87.8,24.1,6.5,Activity (H9c2 [5]): 54%
COC(=O)CCc1c[nH]c2cc(OC(=O)N(C)c3ccc(OC)cc3)ccc12,43.1%,,> 600,,,,Activity (H9c2 [5]): 48.2%
O=C(O)CCC1CNc2cccc(O)c21 (stereo unspecified),,,,,1.44,,Activity [6]: 19.1%
COC(=O)CCC1CNc2cccc(O)c21.Cl (stereo unspecified),57.3%,,,121,0.67,,Activity (Gallus gallus [7]): Active; Activity [8]: 32.4%; Activity (Gallus gallus [9]): Active; Activity [6]: 10.6%; IC50 [10]: 0.25 µM
CC(=O)N[C@@H](CS)C(=O)O [ACETYLCYSTEINE],25.2%,,,,,,Activity (H9c2 [5]): 20%
O=C(O)c1cc(O)c(O)c(O)c1,,,,,,,Activity [8]: 31.4%
CN(C)C(=O)Oc1cccc2c1CCN2.Cl,46.8%,1.3,1.2,,0.77,1.08,
CCN(C)C(=O)Oc1cccc2c1C(CCC(=O)OC)CN2 (stereo unspecified),,,,,,0.04,Activity (Gallus gallus [7]): Active; Activity [8]: 24.8%; Activity (Gallus gallus [9]): Active
CCN(C)C(=O)Oc1ccc2c(c1)N(CCC(=O)OC)CC2,,6.8,,,0.22,,IC50 [10]: 2.18 µM
CCN(C)C(=O)Oc1cccc2c1C(CCC(=O)O)CN2C.Cl (stereo unspecified),57.4%,9.7,124,106,1.64,0.078,Activity (H9c2 [11]): 43%
O=C(O)CCC1CNc2cc(O)ccc21 (stereo unspecified),inactive,,,,2.34,,Activity [6]: 41.9%; IC50 [10]: 1.34 µM
CCN(C)C(=O)Oc1ccc2c(c1)N(C)CC2,,58.7,418,,1.15,0.14,
CCN(C)C(=O)Oc1ccc2c(c1)NCC2CCC(=O)OC.Cl (stereo unspecified),58.5%,3.9,55.2,100,1.45,,Activity (H9c2 [5]): 77%; IC50 [10]: 2.36 µM
CCN(C)C(=O)Oc1cccc2c1CCN2.Cl,35.3%,0.7,7.2,,1.38,0.1,Activity (Gallus gallus [7]): Active; Activity [8]: 15%; Activity (Gallus gallus [9]): Active; IC50 [10]: 0.57 µM
COc1ccc(N(C)C(=O)Oc2cccc3c2C(CCC(=O)O)CN3)cc1 (stereo unspecified),inactive,417,37.8,95.5,4.33,11,
CCN(C)C(=O)Oc1cccc2c1CCN2CCC(=O)OC,,0.7,,,0.3,,Activity [8]: 27.8%; IC50 [10]: 8.49 µM
CCN(C)C(=O)Oc1ccc2c(c1)NCC2CCC(=O)OC (stereo unspecified),,,,,,0.07,Activity [8]: 31.7%
O=c1c(O)c(-c2ccc(O)c(O)c2)oc2cc(O)cc(O)c12 [QUERCETIN],45.1%,,,,0.06,,Activity [8]: 19.2%; Activity [6]: 33.6%; IC50 [10]: 0.61 µM
CCN(C)C(=O)Oc1cccc([C@H](C)N(C)C)c1 [RIVASTIGMINE],,,0.62,,,,
COC(=O)CCC1CNc2cccc(OC(=O)N(C)c3ccc(OC)cc3)c21.Cl (stereo unspecified),43.1%,4.6,1.2,84.7,19,3.8,Activity [8]: 30.4%; IC50 [10]: 3.18 µM

Compound,Activity (H9c2 [1]),IC50 (Butyrylcholinesterase) [µM],IC50 (Acetylcholinesterase) [µM],viability [2] [%],IC50 [3] [µM],Ratio IC50 [4],further results
CCN(C)C(=O)Oc1ccc2c(c1)NCC2CCC(=O)OC.O=C(O)CC(O)(CC(=O)O)C(=O)O (stereo unspecified),,,,,,,Stability [12]: Stable; Stability [13]: Stable; Stability [14]: Unstable; Stability (Liver microsomes): Unstable; Stability (Liver): Unstable
CCN(C)C(=O)Oc1cccc2c1c(CCC(=O)OC)cn2C,,,180,,,,
CCCCN(C)C(=O)Oc1ccc2c(c1)N(C)CC2CCC(=O)OC (stereo unspecified),,66.8,122,,6.27,0.55,
CCN(C)C(=O)Oc1cccc2[nH]cc(CCC(=O)OC)c12,,9.5,19.6,,,0.48,
C#CCN[C@@H]1CCc2ccc(OC(=O)N(C)CC)cc21 [LADOSTIGIL],58.5%,0.48,30.3,,,0.06,Activity (H9c2 [5]): 32%
CCN(C)C(=O)Oc1cccc2c1C(CCC(=O)O)CN2 (stereo unspecified),inactive,0.3,19,93.4,1.59,0.016,
COc1ccc2[nH]cc(CCNC(C)=O)c2c1 [MELATONIN],,,,,95.8,,IC50 [15]: 127 µM; IC50 [16]: 537 µM; IC50 [10]: 1020 µM
CCN(C)C(=O)Oc1cccc2c1C(CCC(=O)OC)CN2.CS(=O)(=O)O (stereo unspecified),,,,,,,Stability [17]: 9 days; metabolised at […] [18]: 40%; Stability (Liver microsomes): Unstable; Stability (Liver): Unstable
CCN(C)C(=O)Oc1cccc2c1C(CCC(N)=O)CN2.Cl (stereo unspecified),55.2%,8.5,62,96,2.39,0.14,
COC(=O)CCC1CNc2cc(O)ccc21.Cl (stereo unspecified),50%,,,,1.34,,Activity [8]: 28.2%; Activity [6]: 52.1%; Activity (H9c2 [5]): 87%; IC50 [10]: 1.38 µM
CN1CC(CCC(=O)O)c2ccc(O)cc21 (stereo unspecified),,,,,0.84,,Activity [6]: 66.3%; IC50 [10]: 3.25 µM
CCCCN(C)C(=O)Oc1ccc2c(CCC(=O)OC)c[nH]c2c1,28.8%,,,,,,Activity (H9c2 [5]): 56%
CCCCN(C)C(=O)Oc1cccc2c1C(CCC(=O)OC)CN2C.Cl (stereo unspecified),31.5%,197,,93.9,6.84,2.89,
COC(=O)CCC1CN(C)c2cccc(O)c21 (stereo unspecified),,,,,0.45,,Activity [6]: 15.4%
COC(=O)CCC1CNc2cc(OC(=O)N(C)c3ccc(OC)cc3)ccc21.Cl (stereo unspecified),43.8%,54,,,3.41,1.4,
CCOC(=O)CCC1CNc2cccc(OC(=O)N(C)CC)c21 (stereo unspecified),,0.56,40.2,,,,
Cl.Oc1cccc2c1CCN2,38%,,,,1.15,,Activity (Gallus gallus [7]): Active; Activity (Gallus gallus [9]): Active
CCN(C)C(=O)Oc1ccc2c(c1)NCC2CCC(=O)O.Cl (stereo unspecified),56.1%,10,175,102,1.14,0.06,
COC(=O)CCC1CN(C)c2cc(OC(=O)N(C)c3ccc(OC)cc3)ccc21.Cl (stereo unspecified),33.3%,372,17.4,106,2.24,,
CCN(C)C(=O)Oc1cccc2c1C(CCC(=O)OC)CN2.Cl (stereo unspecified),73%,0.3,7.4,99.9,1.46,,IC50 [10]: 4.55 µM
CCN(C)C(=O)Oc1cccc2c1C(CCN)CN2 (stereo unspecified),,0.2,,,0.07,0.5,Activity [8]: 36.3%; IC50 [10]: 2.13 µM
COC(=O)CCC1CN(C)c2cccc(OC(=O)N(C)c3ccc(OC)cc3)c21 (stereo unspecified),inactive,> 600,246,107,15.3,> 2.4,
